Test results as given in article PMC2742692 (Proteins, 2009).

The compounds below were run against CalO2 (Micromonospora echinospora, UniProt Q8KND6) (assay: CalO2 ligand binding by UV-vis difference spectra).
Set-up: species or system M. echinospora

Compound | Kd
CC(=O)NCCSC(=O)c1c(C)cc(O)cc1O [compound 11] | 170 ± 30 µM
CC(=O)NCCSC(=O)c1cccc(I)c1 [compound 13] | 120 µM
CC(=O)NCCSC(=O)c1ccccc1O [compound 14] | 405 ± 100 µM
